Measurements: patent publication US9283212B2, “Pharmaceutical preparation and delivery system” (PALMAYA PTY LTD, priority 2009, dated 2016)
“Also recorded” adds a separate entry of the source.

Legend:
[1] = system: patients with addiction, chronic anxiety or sleep disorders; assay: continuous subcutaneous infusion of flumazenil in patients (case study and observations); assay type: in vivo, human
Experimental: A solution of flumazenil in saline solution was prepared by dissolving 16 mg of flumazenil in 30 mL of saline and adjusting the pH to between 6.5 to 7.0 with a phosphate buffer, solution (pH 5.0). The final concentration of flumazenil in saline is 0.53 mg/mL.
A solution of flumazenil in saline was prepared as set out above. That is, a portion of 12 to 16 mg flumazenil in 30 mL of saline was prepared for the subcutaneous administration via a spring driven 30 mL pump. The pump used was a portable infusion Springfusor pump (O'Neil Balloon Infuser, ID: SBI-100; Go Medical Industries). The delivery rate of the flumazenil was in the order of 40 to 1000 μg/h.
A Springfusor pump connected to tubing and a butterfly cannula was set up, wherein the pump was loaded with 30 mL of flumazenil solution (0.53 mg/mL). The butterfly cannula was inserted into the patient's abdomen using standard techniques and the pump set to delivery flumazenil at a rate of 166 μg/h. After the initial four day (96 hour) administration, the pump was reloaded with a further 30 mL of flumazenil solution (0.53 mgmL) and delivery continued for a further four days (96 hours). The subcutaneous infusion continued for a total of three weeks.

[2] = system: patient suffering from chronic anxiety; assay: patient controlled subcutaneous pump, single dose, heart rate and anxiety; assay type: in vivo, human
Experimental: The heart rate and the body movement of the patient were recorded using standard equipment.

[3] = system: patients with cravings for smoking; conditions: patient controlled delivery, agent alone
From the text: In one experiment, flumazenil and naltrexone were mixed to capture the benefits of mixing a benzodiazepine antagonist and an opiate antagonist to be given in a pulsative manner when cravings were observed.

[4] = cited from earlier work
[5] = cited from earlier work; remark: listed apart in the source
[6] = system: subjects with panic disorder, social anxiety or alcohol dependence; conditions: cited from earlier work
[7] = system: patients with addiction, chronic anxiety or sleep disorders; assay: continuous subcutaneous infusion of flumazenil in patients (case study and observations); assay type: in vivo, human; conditions: intravenous infusions below 80 μg/h
[8] = continuous subcutaneous infusion

With `CCOC(=O)c1ncn2c1CN(C)C(=O)c1cc(F)ccc1-2` [flumazenil] the panic attacks ([1]; after full treatment with subcutaneous infusion, one patient) was “gone”, the anticonvulsant effect ([1]; constant subcutaneous delivery of 166 μg/h) was “appears to be effective as an anticonvulsant” and the sleeping pulse rates ([1]; continuous infusion with or without opiate and cannabanoid antagonists, chronic anxiety disorders) was “reductions in sleeping pulse rates”. For the same molecule, the “anxiety levels / anxiety disorders” value [1, 8] was “reduced; also recorded: marked improvements”, the cognitive function [1, 8] was “improved cognitive functions; also recorded: appeared to improve daily” and the “dependency on anti-psychotic drugs” value ([1]; continuous subcutaneous infusion 166 μg/h, one patient) was “decreased”. For the same molecule, the “sleep patterns / chronic sleep disorders” value ([1]; continuous subcutaneous infusion, 166 μg/h, greater than four days) was “better sleep patterns; also recorded: gradually improved; also recorded: good response rates”, the “cravings for addictive substances (alcohol, smoking, amphetamines, opiates, benzodiazepines)” value ([1]; continuous subcutaneous infusion, during and after infusion) was “decreased and eventually were considered negligible; also recorded: reduced; also recorded: reduction in craving for alcohol” and the pulse rate ([2]; 60 minutes after single 1 mg subcutaneous dose, from close to 120 bpm before) was 80 bpm. The anxiety ([2]; single 1 mg dose via patient controlled subcutaneous pump) was “reduction in anxiety”, the “symptoms of craving and anxiety” value [3] was “decrease symptoms of craving and anxiety” and the “solubility in acidic aqueous solutions” value ([4]; acidic aqueous solutions) was “slightly soluble”. For the same molecule, the solubility in water ([4]; water) was “insoluble in water”, the half life ([5]; in vivo) was “very short half life” and the oral bioavailability ([5]; oral) was “low oral bioavailability”. For the same molecule, the panic induction ([6]; bolus infusion of 2 mg in 10 minutes, subjects with panic disorder) was “can act as a specific panicogen”, the “effect on social anxiety or alcohol-dependent subjects” value ([6]; intravenous infusion) was “no effect” and the anticonvulsant effect [7] was “failed to stop epileptic convulsions”.
